Test results taken from PMC9951290, “Comprehensive Structure–Activity Relationship Studies of Cepafungin Enabled by Biocatalytic C–H Oxidations” (ACS Central Science, 2023).
Read-outs that look alike come from different tables or passages of the source.

Experiments:
MM.1S BtzR = conditions: Cell line: MM.1S BtzR; Figure 2; cited from earlier work
Mino BtzR = conditions: Cell line: Mino BtzR; Figure 2; cited from earlier work
MM.1S = conditions: Cell line: MM.1S; Figure 2; cited from earlier work
Mino [1] = conditions: Cell line: Mino; Figure 2; cited from earlier work
RPMI 8226 cells [2] = test: Cytotoxicity measurement (WST-1), RPMI 8226; assay type: cell-based, human; conditions: for Potency in cytotoxicity screening relative to natural product 1: RPMI 8226, 30 and 100 nM compound concentration, n = 3, Figure 4B; for EC50: Homo sapiens, RPMI 8226, 48 hours, WST-1, n = 3, read-out: Cytotoxicity EC50 (cell viability)
Procedure: (§1) Cellular assays were performed on human multiple myeloma RPMI 8226 cells (Figure 4). First, relative inhibition of proteasome subunits β5 and β2 for all analogues and the natural product was measured at 30 nM compound concentration. Following incubation of the compounds in cell culture for 6 h, cells were lysed, and fluorogenic subunit-specific peptide substrates Suc-LLVY-AMC (β5) or Ac-RLR-AMC (β2) were incubated with the lysates; fluorescence readings provided relative proteasome activity levels in comparison with DMSO (Figure 4A). Next, cytotoxicity screening was performed at 30 and 100 nM concentrations for sufficient coverage of dynamic range (Figure 4B). […] Therefore, the improved cytotoxicity of phenyl cepafungin 50 likely results from a more pronounced loss of β5 function in RPMI 8226 cells. This drastic increase in proteasome inhibition may be due to π-stacking of the lipid tail phenyl ring with the β6 subunit residues Tyr106 and/or Tyr5. The β2 subunit-bound natural product has residues Tyr102 and Phe103 on the adjacent β3 subunit oriented further away from the terminal lipid methyl groups, and presumably would not facilitate π-stacking to the extent possible at the adjacent β6 subunit (see Figure 3 and Figure S4). […] These combined modifications were made in hopes that the effects of both substitutions would be additive. […] The presence of a Thr residue next to the cepafungin macrocycle appears to be favored over the ethyl side chain of desoxy-Thr analogue 44 as indicated by cytotoxicity and hydrogen-bonding seen in the cepafungin-bound crystal structure (Figures 3 and 4B).
AMC (β5) or Ac-RLR-AMC (β2). […]
Cytotoxicity Measurements
in DMSO) or DMSO and cultured for 48 hours. Toxicity was determined using the WST-1 assay
(Roche) according to the protocol of the manufacturer. (n = 3)
Figure S1. […]

[3] = Macrolactamisation of unprotected diamino acid: Lys epsilon-NH2 to vinylogous amino acid CO2H, DMTMMT (BF4 salt, 1.5 equiv), DIPEA (4 equiv); free alpha-NH2 and OH present; conditions: the molecule shown is the open-chain precursor, 12-membered ring, DMF, 1.0 mM, 25.0 °C
proteasome subunit β5 [4] = molecular target: T1, proteasome subunit β5 (Homo sapiens, UniProt P28074); conditions: in situ in RPMI 8226 cells; preliminary analogue series, Figure 2; cited from earlier work
T1 construct: Following incubation of the compounds in cell culture for 6 h, cells were lysed; endogenous in cells; host or cells: RPMI 8226 (human multiple myeloma)

proteasome subunit β5 [5] = molecular target: T1, proteasome subunit β5; test: In situ β5 proteasome activity assay (Suc-LLVY-AMC) in RPMI 8226 cells; assay type: cell-based
Excerpt: A preliminary series of analogues, including the natural product glidobactin A (2), were synthesized by largely the same route (Scheme 2B, Figure 2).[36] Desoxycepafungin (38) was synthesized from Boc-Lys(Boc)-OH by peptide couplings/macrocyclization to assess the role of the macrocycle hydroxylation in 1 toward proteasome inhibition. The saturated cepafungin analogue 39 was designed to address the possible role of rigidity in the tail fragment induced by the diene seen in many natural cepafungins and glidobactins. An analogue bearing unsaturation at its macrocyclic lysine was envisioned to provide a head-to-head comparison between the cepafungin and syringolin macrocyclic core. […] Proteasome subunit β5 IC50 values were determined in situ in RPMI 8226 cells. In close agreement with prior measurement of β5 IC50 for natural 1 and 2 in purified yeast proteasome,[12] in our hands the additional branching methyl in 1 indeed leads to ca. 5-fold improved IC50 compared to 2 in RPMI 8226 cells. […] Likewise, saturation of the fatty acid fragment in 39 causes ca. 14-fold decrease in β5 inhibition. This preliminary series of analogues highlighted that the macrocyclic hydroxylation, fatty acid unsaturation, and terminal lipid functionality are critical for potent proteasome inhibitory activity.
as §1, with “and 4B). […]” for “and 4B).”
Mammalian cell culture and lysate preparation
Mammalian cells were maintained in RPMI-1640 media. All media were supplemented with 10% fetal bovine serum (FBS, Life Technologies Cat# 10437028), non-essential amino acids (Sigma-Aldrich Cat# M7145) and penicillin/streptomycin (Sigma-Aldrich Cat# P4333). Cells were grown at 37 °C under 5% CO2 atmosphere. […] Cells were lysed by needle sonication to obtain cell lysates and protein concentration was determined using the […]
fluorescence was read at A360ex/A460em. […]

HBL2 = test: Cytotoxicity measurement (WST-1), HBL2; conditions: Homo sapiens, HBL2, 48 h, read-out: Cytotoxicity EC50
Procedure: (§2) Cells of the indicated cell line origin were seeded in a 96-well plate (20,000 cells/well) in
(§3) cell culture media supplemented with indicated compounds at given concentrations (1,000x stock
(§4) in DMSO) or DMSO and cultured for 48 hours. Toxicity was determined using the WST-1 assay (Roche) according to the protocol of the manufacturer. (n = 3)

RPMI 8226 cells [6] = test: Global proteomics analysis via LC-MS/MS of RPMI 8226 cells treated with BTZ or 50 (Table S5); assay type: cell-based, human
Procedure: Finally, we evaluated the changes in global protein expression following treatment of RPMI 8226 cells with either BTZ or 50. […] Following treatment, cells were collected via centrifugation, and protein lysates were digested with trypsin and analyzed using LC-MS/MS.
Global proteomics analysis via LC-MS/MS.
RPMI 8226 cells were seeded in a 6-well plate (1,000,000 cells/well) in cell culture media supplemented with DMSO, BTZ (2.5 nM, 1000x stock in DMSO), or 50 (3 nM, 1000x stock in DMSO) for 14 h. Cells were centrifuged (3,000 x g 5 min 4°C) and washed twice with PBS. Cell pellets were resuspended in PBS and protein concentration was determined using the Bradford assay (Bio-Rad). Urea (9 M in 100 mM NH4HCO3 pH 8) was added to a final concentration of 6 M to 30 µg lysate (15 µL PBS). […] Peptides were resuspended in water with 0.1 % FA and analyzed using EASY-nLC 1200 nano-UHPLC coupled to Q Exactive HF-X Quadrupole-Orbitrap mass spectrometer (Thermo Scientific). […]
The MS data were analyzed with MaxQuant (V2.0.3.0) and searched against the human proteome (Uniprot) and a common list of contaminants (included in MaxQuant). […] The minimum peptide length was set to 6 amino acids and peptide re-quantification and “match between runs” was enabled. […]

JeKo-1 = test: Cytotoxicity measurement (WST-1), JeKo-1; conditions: Homo sapiens, JeKo-1, 48 h, read-out: Cytotoxicity EC50
Procedure: as §2, §3, §4

RPMI 8226 cells [7] = conditions: ∼3700 proteins quantified, 19 in common; cited from earlier work
H929 = test: Cytotoxicity measurement (WST-1), H929; conditions: Homo sapiens, NCI-H929, 48 h, read-out: Cytotoxicity EC50
Procedure: as §2, §3, §4

U266 = test: Cytotoxicity measurement (WST-1), U266; conditions: Homo sapiens, U-266, 48 h, read-out: Cytotoxicity EC50
Procedure: as §2, §3, §4

Mino [8] = test: Cytotoxicity measurement (WST-1), Mino; conditions: Homo sapiens, 48 h, read-out: Cytotoxicity EC50
Procedure: as §2, §3, §4

RPMI 8226 cells [9] = test: Cytotoxicity measurement (WST-1), RPMI 8226; assay type: cell-based; conditions: Homo sapiens, 24 h; RPMI 8226, used as treatment concentration for proteomics

For CCCCCCCCCCCCNC(=O)N[C@H](C(=O)N[C@H]1/C=C/CCNC(=O)/C=C/[C@H](C)NC1=O)C(C)C [compound 37, TIR-199], the EC50 (MM.1S BtzR) is given as 0.081 ± 0.0058 µM, the EC50 (Mino BtzR) is given as 0.13 ± 0.002 µM and the EC50 (MM.1S) is given as 0.048 ± 0.0087 µM. The EC50 (Mino [1]) was 0.064 ± 0.0021 µM.
With CC(C)CCCCC/C=C/C=C/C(=O)N[C@H](C(=O)N[C@H]1C[C@H](O)CCNC(=O)/C=C/[C@H](C)NC1=O)[C@@H](C)O [compound 40, epi-4-OH cepafungin] the “Potency in cytotoxicity screening relative to natural product 1” value (RPMI 8226 cells [2]) was “nearly inactive at both concentrations”.
For CC(C)CCCCC/C=C/C=C/C(=O)N[C@H](C(=O)N[C@H]1C[C@@H](O)CCNC(=O)/C=C/[C@H](C(C)C)NC1=O)[C@@H](C)O [compound 43, valinyl cepafungin], the “Potency in cytotoxicity screening relative to natural product 1” value (RPMI 8226 cells [2]) was “more potent than the parent natural product 1”.
Compound C[C@@H](/C=C/C(=O)O)NC(=O)[C@@H](N)[C@@H](O)CCCN has a ring closure, yield by NMR ([3]; 36.0 h) of 47%.
For CCCCCCC/C=C/C=C/C(=O)N[C@H](C(=O)N[C@H]1C[C@@H](O)CCNC(=O)/C=C/[C@H](C)NC1=O)[C@@H](C)O [compound 2, glidobactin A], the IC50 (proteasome subunit β5 [4]) is listed as 0.077 ± 0.005 µM.
For CC(C)[C@H]1/C=C/C(=O)NCC[C@H](O)C[C@H](NC(=O)[C@@H](NC(=O)/C=C/C=C/CCCCCc2ccccc2)[C@@H](C)O)C(=O)N1 [S39], the EC50 (RPMI 8226 cells [2]) was 0.0045 µM.
With C[C@@H](/C=C/C(=O)O)NC(=O)[C@@H](N)C[C@@H](O)CCN the ring closure, yield by NMR [3] was 63%.
For CC(C)CCCCCCCCCC(=O)NC(C(=O)NC1CC(O)CCNC(=O)C=CC(C)NC1=O)C(C)O (stereo not drawn) [compound 39], the IC50 (proteasome subunit β5 [4]) is given as 0.219 ± 0.011 µM and the “fold decrease in β5 inhibition on saturation of the fatty acid fragment” value (proteasome subunit β5 [5]; 39 versus 1, RPMI 8226 cells) is given as “ca. 14 fold”.
In the case of CC(C)CCCCC/C=C/C=C/C(=O)N[C@H](C(=O)N[C@H]1CC(=O)CCNC(=O)/C=C/[C@H](C)NC1=O)[C@@H](C)O [compound 42, keto cepafungin], the “Potency in cytotoxicity screening relative to natural product 1” value (RPMI 8226 cells [2]) is reported as “potency approaching that of the natural product”.
Work on C[C@@H](/C=C/C(=O)O)NC(=O)[C@@H](N)CC(=O)CCN yielded a ring closure, yield by NMR ([3]; 36.0 h) of 51%.
Work on C[C@@H](/C=C/C(=O)O)NC(=O)[C@@H](N)C[C@H](O)CCN yielded a ring closure, yield by NMR ([3]; 36.0 h) of 59%.
CC(C)[C@@H](/C=C/C(=O)O)NC(=O)[C@@H](N)C[C@@H](O)CCN showed a ring closure, yield by NMR ([3]; 36.0 h) of 47%.
In the case of CC(C)CCCCC/C=C/C=C/C(=O)N[C@H](C(=O)N[C@H]1CCCCNC(=O)/C=C/[C@H](C)NC1=O)[C@@H](C)O [compound 38, Desoxycepafungin], the IC50 (proteasome subunit β5 [4]) is given as 0.184 ± 0.029 µM and the “fold higher IC50 than 1” value (proteasome subunit β5 [5]; β5, RPMI 8226 cells) is given as “ca. 11 fold”.
In the case of CC(C)C[C@H](NC(=O)[C@H](Cc1ccccc1)NC(=O)c1cnccn1)B(O)O [bortezomib], the EC50 (HBL2) is listed as 0.0025 ± 0.0004 µM, the EC50 (MM.1S BtzR) is listed as 0.028 ± 0.0006 µM and the EC50 (Mino BtzR) is listed as 0.023 ± 0.0011 µM. For the same compound, the “overlap of upregulated proteins commonly affected by BTZ and 50” value (RPMI 8226 cells [6]; 17 common proteins) was 59%, the “number of proteins with statistically significant increase in expression” value (RPMI 8226 cells [6]; RPMI 8226, 14 h, 2.5 nM BTZ or 3 nM 50 vs DMSO, out of 4080 quantified, FDR 5%, S0 0.1) was 29 proteins and the EC50 (JeKo-1) was 0.007 ± 0.0005 µM. The “number of proteins upregulated compared to DMSO control” value (RPMI 8226 cells [7]) was 25 proteins, the EC50 (H929) was 0.0015 ± 0.0002 µM and the EC50 (RPMI 8226 cells [2]) was 0.0022 ± 0.0001 µM. It also gave an EC50 (U266) of 0.0031 ± 0.0001 µM, an EC50 (Mino [8]) of 0.0074 ± 0.0003 µM and an EC50 (RPMI 8226 cells [9]) of 0.0025 µM. For the same compound, the EC50 (MM.1S) was 0.0023 ± 3e-05 µM and the EC50 (Mino [1]) was 0.01 ± 0.0004 µM.
With CC(C)CCCCC/C=C/C=C/C(=O)N[C@H](C(=O)N[C@@H]1C(=O)N[C@@H](C)/C=C/C(=O)NCCC[C@@H]1O)[C@@H](C)O [compound 41, 3-OH cepafungin] the “Potency in cytotoxicity screening relative to natural product 1” value (RPMI 8226 cells [2]) was “nearly inactive at both concentrations”.
